Measurements taken from article PMC9229843, “Cancer-Related Somatic Mutations in Transmembrane Helices Alter Adenosine A1 Receptor Pharmacology” (Molecules, 2022).
Substitutions are numbered along the chain they refer to.

How the values were obtained:
Assay in all cases: [3H]DPCPX radioligand displacement assay, CHO membranes
Assay type in all cases: binding
Set-up in all cases: expressed in transfected cells; host or cells: CHO cells, transient; membranes
Conditions in all cases: fraction of high-affinity state; two-site model
hA1AR H78L^3.23 = molecular target: T1, hA1AR H78L^3.23 (Homo sapiens, UniProt P30542, H78L)
T1 sequence (P30542 1-326 H78L): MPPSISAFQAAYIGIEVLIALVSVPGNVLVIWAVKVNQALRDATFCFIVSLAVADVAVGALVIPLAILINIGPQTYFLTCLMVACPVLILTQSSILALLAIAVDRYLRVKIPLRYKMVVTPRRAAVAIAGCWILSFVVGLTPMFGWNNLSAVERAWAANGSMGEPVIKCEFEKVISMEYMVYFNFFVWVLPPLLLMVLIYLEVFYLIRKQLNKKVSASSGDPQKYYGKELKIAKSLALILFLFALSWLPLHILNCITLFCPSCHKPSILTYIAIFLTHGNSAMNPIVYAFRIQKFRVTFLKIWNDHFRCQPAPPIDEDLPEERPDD
Experimental: (§1) Transient transfection of CHO cells with wild type or mutated hA1AR plasmid constructs was performed using a polyethylenimine (PEI) method. Cells were seeded in 10-cm culture dishes to achieve 50–60% confluency 24 h prior to transfection. On the day of transfection, cells were transfected with a PEI: DNA ratio of 3:1 and a plasmid DNA amount of 10 μg/dish. Moreover, 24 h post-transfection, the medium was refreshed, and 48 h after transfection, cells were collected and membranes were prepared as previously described. Membranes were aliquoted in 250 or 100 μL and stored at −80 °C. Membrane protein concentrations were determined using the BCA method.
(§2) The displacement assays were performed as described previously. […] Note, the number of cell membranes (10–25 µg) was adjusted to obtain (approximately) a 1500 DPM assay window for each mutant. […] Incubations were terminated after 1 h at 25 °C by rapid vacuum filtration through GF/B filter plates (PerkinElmer, Groningen, Netherlands) using a Perkin Elmer Filtermate-harvester. Afterward, filter plates were washed ten times with ice-cold buffer (50 mM Tris-HCl, pH 7.4) and dried at 55 °C for 30 min. After the addition of 25 µL per well of the Microscint scintillation cocktail (PerkinElmer, Groningen, The Netherlands), the filter-bound radioactivity was measured by scintillation spectrometry in a Microbeta2® 2450 microplate counter (PerkinElmer).
(§3) All experimental data were analyzed by GraphPad Prism 7.0 or 8.0 (GraphPad Software Inc., San Diego, CA, USA). Data from yeast liquid growth and [^35S]GTPγS binding assays were analyzed by non-linear regression using “log (agonist) vs. response (three parameters)” or “log (inhibitor) vs. response (three parameters)” to obtain potency (EC50), inhibitory potency (IC50), and efficacy (Emax or Imax) values. The radioligand displacement curves were obtained from a statistically preferred one-site or two-site binding model. pKi values were calculated from pIC50 values using the Cheng–Prusoff equation, where KD values were obtained from the homologous competition assays from this study and calculated by non-linear regression using “one site–homologous” [62].

hA1AR W188C^5.46 = molecular target: T2, hA1AR W188C^5.46 (Homo sapiens, UniProt P30542, W188C)
T2 sequence (P30542 1-326 W188C): T1 sequence (P30542 1-326 H78L) with L78H, W188C
Experimental: as §1, §2, §3

hA1AR L134F^4.52 = molecular target: T3, hA1AR L134F^4.52 (Homo sapiens, UniProt P30542, L134F)
T3 sequence (P30542 1-326 L134F): T1 sequence (P30542 1-326 H78L) with L78H, L134F
Experimental: as §1, §2, §3

hA1AR S246T^6.47 = molecular target: T4, hA1AR S246T^6.47 (Homo sapiens, UniProt P30542, S246T)
T4 sequence (P30542 1-326 S246T): T1 sequence (P30542 1-326 H78L) with L78H, S246T
Experimental: as §1, §2, §3

Structure (SMILES): OC[C@H]1O[C@@H](n2cnc3c(NC4CCCC4)ncnc32)[C@H](O)[C@@H]1O [CPA, N^6-cyclopentyladenosine]
- Fraction (High) (hA1AR H78L^3.23): 0.33 ± 0.04
- Fraction (High) (hA1AR W188C^5.46): 0.29 ± 0.01
- Fraction (High) (hA1AR L134F^4.52): 0.34 ± 0.03
- Fraction (High) (hA1AR S246T^6.47): 0.26 ± 0.03
